This test concerns human PBMCs T cells. The experiment in a line: Human PBMCs T cells pro-inflammatory cytokine secretion (flow cytometry). It is filed as cell-based. The method, then: A 48 well plate was coated with human anti-CD3 antibody (1 μg/ml) overnight. After washing with 1×PBS, plates were coated with human PBMCs (0.5×10^6 cells/well), human anti-CD28 (1 μg/ml), β-mercaptoethanol (1 μg/ml), different concentrations of Saffron aqueous extract (250 μg/ml, 500 μg/ml) and other constituents of saffron, Safranal (500 μM, 1 mM) (Sigma Aldrich, USA). The human PBMCS of 0.5×10^6 cells/well PBMCs were seeded in 48 well microplates in RPMI-1640 (Sigma, USA) supplemented with 10% fetal bovine serum and 1% penicillin/streptomycin at 37° C. and in 5% CO2) (day 0). At day 3, cells were stimulated with phorbol myristate acetate (PMA; 50 ng/ml)+ Ionomycin (1 μg/ml)+ Brefeldin A (1X) for 4 hrs. and cells were harvested and stained for flow cytometry. The human specific antibodies for T cells (dye; Zombi Aqua, CD45 PerCP 5.5, CD3 BV421, CD4 PETR, CD127-PECy7, CD25 BV605, CD8a AF488 and pro-inflammatory cytokines, like TNF-α AF700, IFNg APC, IL4 PE) were used to stain the PBMC cells.
In CD8+ T cells, TNFα+ expression was reduced in presence of SFE dose 500 μg/ml and safranal doses (500 μM, 1 mM) only, while IFNg+ expression was reduced in all tested doses of SFE and safranal in comparison to stimulated human PBMCs treated with media.

In the case of `CC1=C(C=O)C(C)(C)CC=C1` [safranal, Safranal], where the note is “SFE 500 μg/ml only, safranal 500 μM, 1 mM, vs media treated stimulated PBMC”, the “TNFα+ expression in CD8+ T cells” value is “reduced”. In addition, the “TNFα+ in CD4+ T cells” value (SFE 250 and 500 μg/ml, safranal 500 μM, 1 mM, anti-CD3/CD28, PMA+ionomycin stimulated, vs media) was “inhibitory response”. In addition, the “IFNg+ in CD4+ T cells” value (SFE 250 and 500 μg/ml, safranal 500 μM, 1 mM, vs media treated stimulated PBMC) is reported as “inhibitory response”. In addition, the “IFNg+ expression in CD8+ T cells” value (all tested doses (SFE 250, 500 μg/ml; safranal 500 μM, 1 mM), vs media) is listed as “reduced”.

(Values after US20250268971A1, “SAFFRON AS ANTI-INFLAMMATORY AGENT IN TREATING INFLAMMATORY BOWEL DISEASE” (HOWARD UNIVERSITY, priority 2020, published 2025).)
